Results as given in ChEMBL document CHEMBL1152145, “The discovery of equipotent PPARalpha/gamma dual activators” (Bioorg Med Chem Lett, 2008).

Legend:
[1] = target: T1, Peroxisome proliferator-activated receptor alpha (Homo sapiens, UniProt Q07869)
T1 sequence (Q07869 whole entry): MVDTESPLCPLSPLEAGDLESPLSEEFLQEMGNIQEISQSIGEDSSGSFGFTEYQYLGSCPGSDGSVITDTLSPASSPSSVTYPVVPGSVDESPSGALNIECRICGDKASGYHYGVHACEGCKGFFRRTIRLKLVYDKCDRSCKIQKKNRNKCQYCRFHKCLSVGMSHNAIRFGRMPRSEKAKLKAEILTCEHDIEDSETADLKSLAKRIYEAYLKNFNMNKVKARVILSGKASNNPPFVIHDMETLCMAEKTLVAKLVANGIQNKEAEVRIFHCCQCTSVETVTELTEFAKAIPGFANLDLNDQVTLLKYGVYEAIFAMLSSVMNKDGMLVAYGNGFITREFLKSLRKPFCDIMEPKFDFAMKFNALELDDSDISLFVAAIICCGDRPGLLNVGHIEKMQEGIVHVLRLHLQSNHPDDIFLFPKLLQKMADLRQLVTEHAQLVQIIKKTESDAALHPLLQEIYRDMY
Description: Agonist activity at human PPARalpha receptor by cell based transient transfection assay

[2] = target: T2, Peroxisome proliferator-activated receptor delta (Homo sapiens, UniProt Q03181)
T2 sequence (Q03181 whole entry): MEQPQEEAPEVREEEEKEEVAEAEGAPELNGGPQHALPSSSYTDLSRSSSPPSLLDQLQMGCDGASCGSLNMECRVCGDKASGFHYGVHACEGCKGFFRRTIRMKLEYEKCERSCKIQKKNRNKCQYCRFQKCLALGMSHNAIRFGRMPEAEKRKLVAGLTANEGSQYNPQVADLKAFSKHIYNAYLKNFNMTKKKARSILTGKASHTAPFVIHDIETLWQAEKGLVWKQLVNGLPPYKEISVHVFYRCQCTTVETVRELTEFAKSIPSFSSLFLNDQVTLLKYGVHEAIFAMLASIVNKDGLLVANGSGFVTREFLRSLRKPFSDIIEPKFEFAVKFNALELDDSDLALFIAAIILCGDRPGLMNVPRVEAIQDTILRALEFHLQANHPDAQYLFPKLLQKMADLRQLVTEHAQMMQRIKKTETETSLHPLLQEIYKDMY
Description: (§1) Agonist activity at human PPARdelta receptor by cell based transient transfection assay

[3] = target: T3, Peroxisome proliferator-activated receptor gamma (Homo sapiens, UniProt P37231)
T3 sequence (P37231 whole entry): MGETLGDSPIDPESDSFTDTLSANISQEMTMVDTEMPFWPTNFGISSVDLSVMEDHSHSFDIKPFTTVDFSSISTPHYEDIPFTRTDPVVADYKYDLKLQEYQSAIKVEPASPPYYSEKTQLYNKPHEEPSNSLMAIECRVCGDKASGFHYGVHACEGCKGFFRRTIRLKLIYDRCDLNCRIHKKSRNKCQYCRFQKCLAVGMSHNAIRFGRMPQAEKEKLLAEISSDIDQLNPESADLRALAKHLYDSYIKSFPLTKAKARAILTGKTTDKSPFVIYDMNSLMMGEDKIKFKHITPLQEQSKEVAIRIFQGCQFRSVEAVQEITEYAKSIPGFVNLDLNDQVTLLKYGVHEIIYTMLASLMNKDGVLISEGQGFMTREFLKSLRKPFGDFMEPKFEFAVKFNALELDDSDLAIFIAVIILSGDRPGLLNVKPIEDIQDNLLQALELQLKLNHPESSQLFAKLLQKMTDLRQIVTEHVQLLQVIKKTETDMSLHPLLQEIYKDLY
Description: Agonist activity at human PPARgamma receptor by cell based transient transfection assay

[4] = target: T2, Peroxisome proliferator-activated receptor delta; remark: listed apart in the source
Description: as §1

[5] = target: T4, Peroxisome proliferator-activated receptor alpha (Mus musculus, UniProt P23204)
T4 sequence (P23204 whole entry): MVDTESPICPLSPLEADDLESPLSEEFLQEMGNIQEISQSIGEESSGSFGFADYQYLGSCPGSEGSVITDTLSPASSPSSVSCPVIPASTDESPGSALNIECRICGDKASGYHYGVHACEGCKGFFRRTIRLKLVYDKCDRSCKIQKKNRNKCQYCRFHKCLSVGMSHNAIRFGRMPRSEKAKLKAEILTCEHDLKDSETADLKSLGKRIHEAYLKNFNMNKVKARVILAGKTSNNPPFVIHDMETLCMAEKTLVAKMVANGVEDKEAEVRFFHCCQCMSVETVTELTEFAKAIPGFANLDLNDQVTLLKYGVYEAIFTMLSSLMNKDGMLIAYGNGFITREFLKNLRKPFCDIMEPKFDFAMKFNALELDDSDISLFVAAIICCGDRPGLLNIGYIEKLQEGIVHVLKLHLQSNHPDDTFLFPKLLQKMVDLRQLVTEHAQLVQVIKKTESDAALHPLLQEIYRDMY
Description: Agonist activity at mouse PPARalpha receptor by cell based transient transfection assay

[6] = target: T5, Peroxisome proliferator-activated receptor delta (Mus musculus, UniProt P35396)
T5 sequence (P35396 whole entry): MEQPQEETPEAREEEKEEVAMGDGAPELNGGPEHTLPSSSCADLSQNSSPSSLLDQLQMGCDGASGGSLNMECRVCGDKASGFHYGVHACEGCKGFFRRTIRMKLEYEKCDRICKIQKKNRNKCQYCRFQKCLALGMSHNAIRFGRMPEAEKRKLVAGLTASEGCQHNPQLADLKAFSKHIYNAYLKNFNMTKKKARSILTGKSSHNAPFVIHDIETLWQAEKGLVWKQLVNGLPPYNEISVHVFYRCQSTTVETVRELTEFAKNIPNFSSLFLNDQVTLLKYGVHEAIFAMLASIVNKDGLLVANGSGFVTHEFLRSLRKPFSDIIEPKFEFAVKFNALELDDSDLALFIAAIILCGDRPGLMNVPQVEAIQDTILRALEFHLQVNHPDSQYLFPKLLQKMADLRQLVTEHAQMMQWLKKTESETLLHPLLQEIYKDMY
Description: Agonist activity at mouse PPARdelta receptor by cell based transient transfection assay

[7] = target: T6, Peroxisome proliferator-activated receptor gamma (Mus musculus, UniProt P37238)
T6 sequence (P37238 whole entry): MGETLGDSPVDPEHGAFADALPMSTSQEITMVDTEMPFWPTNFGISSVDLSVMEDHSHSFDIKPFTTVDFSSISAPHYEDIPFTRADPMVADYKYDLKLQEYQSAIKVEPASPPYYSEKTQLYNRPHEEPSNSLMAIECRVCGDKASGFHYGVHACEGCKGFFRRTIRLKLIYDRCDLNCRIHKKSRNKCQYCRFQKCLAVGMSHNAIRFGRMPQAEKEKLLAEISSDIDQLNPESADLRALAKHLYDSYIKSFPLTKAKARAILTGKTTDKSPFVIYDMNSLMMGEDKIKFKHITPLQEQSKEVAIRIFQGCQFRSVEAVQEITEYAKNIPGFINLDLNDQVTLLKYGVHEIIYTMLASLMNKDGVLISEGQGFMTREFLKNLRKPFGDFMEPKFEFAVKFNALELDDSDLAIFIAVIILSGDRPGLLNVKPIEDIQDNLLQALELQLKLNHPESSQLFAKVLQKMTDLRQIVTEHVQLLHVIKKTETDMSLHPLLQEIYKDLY
Description: Agonist activity at mouse PPARgamma receptor by cell based transient transfection assay

[8] = Cmax in CD rat at […], iv and 5 mg/kg, po; assay type: ADME, organism-based; conditions: in vivo
[9] = Half life in CD rat at […], iv and 5 mg/kg, po; assay type: ADME, organism-based; conditions: in vivo
Rattus norvegicus [10] = assay: Decrease in total triglyceride level in Zucker fatty (fa/fa) rat at 30 mg/kg, bid after 5 days; assay type: functional; design: scale not given: the % may be the effect or the level left
Rattus norvegicus [11] = assay: Decrease in insulin level in Zucker fatty (fa/fa) rat at 30 mg/kg, bid after 5 days; assay type: functional; design: scale not given: the % may be the effect or the level left
Rattus norvegicus [12] = assay: Increase in liver weight in Zucker fatty (fa/fa) rat at 30 mg/kg, bid after 5 days; assay type: functional
[13] = Clearance in CD rat at […], iv and 5 mg/kg, po; assay type: ADME, organism-based; conditions: in vivo
[14] = Bioavailability in CD rat at […], iv and 5 mg/kg, po; assay type: ADME, organism-based; conditions: in vivo
Rattus norvegicus [15] = assay: Increase in liver weight in Zucker fatty (fa/fa) rat at 10 mg/kg, bid after 5 days; assay type: functional
Rattus norvegicus [16] = assay: Decrease in total triglyceride level in Zucker fatty (fa/fa) rat at 10 mg/kg, bid after 5 days; assay type: functional; design: scale not given: the % may be the effect or the level left
[17] = Volume of distribution at steady state in CD rat at […], iv and 5 mg/kg, po; assay type: ADME, organism-based; conditions: in vivo, read-out: Vdss
[18] = AUC in CD rat at 5 mg/kg, po; assay type: ADME, organism-based; design: dose 5 mg/kg, route oral; conditions: plasma
Rattus norvegicus [19] = assay: Decrease in insulin level in Zucker fatty (fa/fa) rat at 10 mg/kg, bid after 5 days; assay type: functional; design: scale not given: the % may be the effect or the level left

Structure (SMILES) | EC50 [1] | EC50 [2] | EC50 [3] | also measured
CCn1nc(-c2ccc(C(C)(C)C)cc2)cc1C(=O)NCc1ccc(OC(C)(C)C(=O)O)c(C)c1 | 50 nM | 2.7 µM | 30 nM | –
Cn1nc(-c2ccc(C(C)(C)C)cc2)cc1C(=O)NCc1ccc(OC(C)(C)C(=O)O)cc1 | 160 nM | – | 1000 nM | EC50 [4]: 10 µM
COc1cc(CNC(=O)c2cc(-c3ccc(CC(C)C)cc3)n(C)n2)ccc1OC(C)(C)C(=O)O | > 25000 nM | > 25 µM | – | –
Cc1cc(CNC(=O)c2cc(-c3ccc(C(C)C)cc3)n(C)n2)ccc1OC(C)(C)C(=O)O | – | 4.85 µM | 8 nM | EC50 [5]: 280 nM; EC50 [6]: 7.1 µM; EC50 [7]: 16 nM
Cc1cc(CNC(=O)c2cc(-c3ccc(C(C)(C)C)cc3)n(C)n2)ccc1OC(C)(C)C(=O)O | 10 nM | > 10 µM | – | Cmax [8]: 1130 ng/mL; half-life [9]: 49.8 min; EC50 [5]: 640 nM; Activity (Rattus norvegicus [10]): 45%; EC50 [6]: > 25 µM; Activity (Rattus norvegicus [11]): 35%; Activity (Rattus norvegicus [12]): 14%; EC50 [7]: 11 nM; clearance [13]: 17 mL/min/kg; bioavailability [14]: 22%; Activity (Rattus norvegicus [15]): 9%; Activity (Rattus norvegicus [16]): 57%; Vd [17]: 0.3 L/kg; AUC [18]: 1790 ng·h/mL; Activity (Rattus norvegicus [19]): 10%
C=CCn1nc(-c2ccc(C(C)(C)C)cc2)cc1C(=O)NCc1ccc(OC(C)(C)C(=O)O)c(C)c1 | 45 nM | – | 60 nM | –
Cc1cc(CNC(=O)c2cc(-c3ccc(CC(C)C)cc3)nn2C)ccc1OC(C)(C)C(=O)O | 45 nM | 2.87 µM | 50 nM | –
Cc1nc(-c2ccc(C(C)(C)C)cc2)sc1C(=O)NCc1ccc(OC(C)(C)C(=O)O)cc1 | 4 nM | 10 µM | 800 nM | –
Cc1cc(CNC(=O)c2cc(-c3ccc(-c4ccccc4C)cc3)n(C)n2)ccc1OC(C)(C)C(=O)O | 90 nM | – | 30 nM | EC50 [5]: 1800 nM; EC50 [6]: > 25 µM; EC50 [7]: 60 nM
Cc1cc(CNC(=O)c2cc(-c3ccc(C(C)C)cc3)nn2C)ccc1OC(C)(C)C(=O)O | 20 nM | 1.36 µM | 50 nM | –
CCn1nc(C(=O)NCc2ccc(OC(C)(C)C(=O)O)c(C)c2)cc1-c1ccc(C(C)(C)C)cc1 | 10 nM | > 25 µM | 15 nM | EC50 [5]: 2260 nM; EC50 [6]: > 25 µM; EC50 [7]: 36 nM
Cc1cc(CNC(=O)c2cc(-c3ccc(N4CCCC4)cc3)n(C)n2)ccc1OC(C)(C)C(=O)O | 8 nM | – | – | –
CCn1nc(C(=O)NCc2ccc(OC(C)(C)C(=O)O)c(OC)c2)cc1-c1ccc(C(C)(C)C)cc1 | > 25000 nM | > 25 µM | 190 nM | –
Cc1cc(CNC(=O)c2cc(-c3ccc(C(C)(C)C)cc3)n(Cc3ccccc3)n2)ccc1OC(C)(C)C(=O)O | 200 nM | 25 µM | – | –
COc1cc(CNC(=O)c2cc(-c3ccc(C(C)(C)C)cc3)n(C)n2)ccc1OC(C)(C)C(=O)O | > 25000 nM | > 25 µM | 176 nM | –
C=CCn1nc(C(=O)NCc2ccc(OC(C)(C)C(=O)O)c(C)c2)cc1-c1ccc(C(C)(C)C)cc1 | – | – | – | EC50 [5]: 6000 nM; EC50 [6]: > 25 µM; EC50 [7]: 150 nM
Cc1cc(CNC(=O)c2cc(-c3ccc(N4CCOCC4)cc3)n(C)n2)ccc1OC(C)(C)C(=O)O | 85 nM | 0.035 µM | 110 nM | –
C=CCOc1ccc(-c2cc(C(=O)NCc3ccc(OC(C)(C)C(=O)O)c(C)c3)nn2C)cc1 | – | > 25 µM | – | –
Cc1cc(CNC(=O)c2cc(-c3ccc(OCc4ccccc4)cc3)n(C)n2)ccc1OC(C)(C)C(=O)O | > 25000 nM | > 25 µM | 80 nM | –
